The structures appear in SMILES notation. Where a name gives a salt, the structure may show the parent alone. Some results are limits rather than exact numbers.

One test has as its target T1, CCR4 (Homo sapiens, UniProt P51679).
T1 construct: expressed in transfected cells; host or cells: CHO cell membranes
T1 sequence (P51679 1-360): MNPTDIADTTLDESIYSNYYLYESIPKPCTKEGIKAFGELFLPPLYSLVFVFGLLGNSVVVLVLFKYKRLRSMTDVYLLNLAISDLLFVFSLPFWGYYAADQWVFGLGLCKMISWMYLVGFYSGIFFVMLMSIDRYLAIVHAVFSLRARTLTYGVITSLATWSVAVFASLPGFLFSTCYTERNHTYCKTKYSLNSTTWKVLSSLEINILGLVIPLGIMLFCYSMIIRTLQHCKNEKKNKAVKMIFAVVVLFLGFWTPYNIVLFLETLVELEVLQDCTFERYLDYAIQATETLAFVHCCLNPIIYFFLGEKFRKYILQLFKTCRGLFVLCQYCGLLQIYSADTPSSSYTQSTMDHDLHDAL
Nature of the test: [35S]-GTPγS SPA binding assay for CCR4 antagonist activity. It is filed as biochemical. Conditions: CCR4 expressing CHO membranes; human MDC at EC80; [35S]-GTPγS competition. The procedure: [35S]-GTPγS SPA Binding Assays for CCR4 Antagonist Activity
Antagonist potency was determined by a radioligand [35S]-GTPγS competition assay. Briefly, CCR4 expressing CHO membranes were homogenised by passing through a 23G needle. These membranes were then adhered to WGA-coated Leadseeker SPA beads in assay buffer (20 mM HEPES, 10 mM MgCl2, 100 mM NaCl, 0.05% BSA, 40 ug/ml Saponin and pH adjusted to 7.4 using KOH 5M) to generate a 3 μg/well final assay concentration (FAC) membrane and 250 μg/well FAC bead, solution.
The bead/membrane/[35S]-GTPγS/Agonist suspension was dispensed into white Greiner polypropylene 384-well plates (45 μl/well), containing 0.5 μl of compound. […] Plates were then read on a Viewlux instrument and luminescence was then plotted as a percentage of the maximum inhibitional response elicited by an IC100 of a standard antagonist.
(GTPγS is a poorly hydrolysed GTP analogue; its binding reports G protein activation.)
Regarding `COc1cccc2c1c(NS(=O)(=O)c1ccc(Cl)s1)nn2Cc1cccc(CNC(=O)C[C@H](N)C(=O)O)c1` [Example 80, N^4-[(3-{[3-{[(5-Chloro-2-thienyl)sulfonyl]amino}-4-(methyloxy)-1H-indazol-1-yl]methyl}phenyl)methyl]-L-asparagine trifluoroacetate], the IC50 is 3.98 to 15.8 nM.

Take `CC(O)c1cccc2c1c(NS(=O)(=O)c1ccc(Cl)s1)nn2Cc1cccc(CNC(=O)C(C)(C)O)c1` (stereo not drawn) [Example 151, N-[(3-{[3-{[(5-Chloro-2-thienyl)sulfonyl]amino}-4-(1-hydroxyethyl)-1H-indazol-1-yl]methyl}phenyl)methyl]-2-hydroxy-2-methylpropanamide]: the IC50 is 3.98 to 15.8 nM.

On to `COc1cccc2c1c(NS(=O)(=O)c1ccc(Cl)s1)nn2Cc1cccc(CNC(=O)CCCC(=O)O)c1` [Example 139, 5-{[(3-{[3-{[(5-Chloro-2-thienyl)sulfonyl]amino}-4-(methyloxy)-1H-indazol-1-yl]methyl}phenyl)methyl]amino}-5-oxopentanoic acid], for which the concentration for half-maximal inhibition (IC50) is 3.98 to 15.8 nM.

Compound `COc1cc(F)cc2c1c(NS(=O)(=O)c1ccc(Cl)s1)nn2Cc1cccc(CNC(=O)C2COCCN2C)c1` (stereo not drawn) [Example 133, N-[(3-{[3-{[(5-Chloro-2-thienyl)sulfonyl]amino}-6-fluoro-4-(methyloxy)-1H-indazol-1-yl]methyl}phenyl)methyl]-4-methyl-3-morpholinecarboxamide] gave a half-maximal inhibitory concentration (IC50) of 3.98 to 15.8 nM.

The compound `COc1cccc2c1c(NS(=O)(=O)c1ccc(Cl)s1)nn2Cc1cccc(CNC(=O)[C@@H](N)CO)c1` [Example 102, N^1-[(3-{[3-{[(5-Chloro-2-thienyl)sulfonyl]amino}-4-(methyloxy)-1H-indazol-1-yl]methyl}phenyl)methyl]-L-serinamide] gave an IC50 of 3.98 to 15.8 nM.

On to `CC(O)c1cccc2c1c(NS(=O)(=O)c1ccc(Cl)s1)nn2Cc1cccc(CNC(=O)[C@H]2COCCN2)c1` (stereo partly drawn) [Example 152, (3R)—N-[(3-{[3-{[(5-Chloro-2-thienyl)sulfonyl]amino}-4-(1-hydroxyethyl)-1H-indazol-1-yl]methyl}phenyl)methyl]-3-morpholinecarboxamide formate salt], for which the IC50 is 3.98 to 15.8 nM.

As to `CNCC(=O)NCc1cccc(Cn2nc(NS(=O)(=O)c3ccc(Cl)s3)c3c(OC)cccc32)c1` [Example 85, N^1-[(3-{[3-{[(5-Chloro-2-thienyl)sulfonyl]amino}-4-(methyloxy)-1H-indazol-1-yl]methyl}phenyl)methyl]-N^2-methylglycinamide trifluoroacetate], the half-maximal inhibitory concentration (IC50) is 3.98 to 15.8 nM.

Compound `COc1cccc2c1c(NS(=O)(=O)c1ccc(Cl)s1)nn2Cc1cccc(CNC(=O)CCCCC(=O)O)c1` [Example 140, 6-{[(3-{[3-{[(5-Chloro-2-thienyl)sulfonyl]amino}-4-(methyloxy)-1H-indazol-1-yl]methyl}phenyl)methyl]amino}-6-oxohexanoic acid] showed an IC50 of 3.98 to 15.8 nM.

`COc1cccc2c1c(NS(=O)(=O)c1ccc(Cl)s1)nn2Cc1cccc(CNC(=O)CCCCCCC(=O)O)c1` [Example 144, 8-{[(3-{[3-{[(5-Chloro-2-thienyl)sulfonyl]amino}-4-(methyloxy)-1H-indazol-1-yl]methyl}phenyl)methyl]amino}-8-oxooctanoic acid] showed an IC50 of 3.98 to 15.8 nM.

For the compound `COc1cccc2c1c(NS(=O)(=O)c1ccc(Cl)s1)nn2Cc1cccc(CNC(=O)[C@@H](N)Cc2c[nH]c3ccccc23)c1` [Example 114, N-[(3-{[3-{[(5-Chloro-2-thienyl)sulfonyl]amino}-4-(methyloxy)-1H-indazol-1-yl]methyl}phenyl)methyl]-L-tryptophanamide], the IC50 was 3.98 to 15.8 nM.

As to `COc1c(F)ccc2c1c(NS(=O)(=O)c1ccc(Cl)s1)nn2Cc1cccc(CNC(C)=O)c1` [Example 134, N-[(3-{[3-{[(5-Chloro-2-thienyl)sulfonyl]amino}-5-fluoro-4-(methyloxy)-1H-indazol-1-yl]methyl}phenyl)methyl]acetamide], the IC50 was 3.98 to 15.8 nM.

Compound `COc1cccc2c1c(NS(=O)(=O)c1ccc(C)s1)nn2Cc1ccc(CNC(=O)[C@H]2COCCN2)cc1` [Example 120, (3R)—N-({4-[(4-(methyloxy)-3-{[(5-methyl-2-thienyl)sulfonyl]amino}-1H-indazol-1-yl)methyl]phenyl}methyl)-3-morpholinecarboxamide trifluoroacetate] gave a half-inhibitory concentration (IC50) of 100 to 398 nM.

As to `COc1cccc2c1c(NS(=O)(=O)c1cccs1)nn2Cc1cccc(CNC(C)=O)c1` [Example 116, N-{[3-({4-(Methyloxy)-3-[(2-thienylsulfonyl)amino]-1H-indazol-1-yl}methyl)phenyl]methyl}acetamide], the IC50 is 100 to 398 nM.

Regarding `CC(C)(O)c1cccc2c1c(NS(=O)(=O)c1ccc(Cl)s1)nn2Cc1cccc(CNC(=O)[C@@H]2COCCN2)c1` [Example 156, (3S)—N-[(3-{[3-{[(5-Chloro-2-thienyl)sulfonyl]amino}-4-(1-hydroxy-1-methylethyl)-1H-indazol-1-yl]methyl}phenyl)methyl]-3-morpholinecarboxamide], the IC50 was 100 to 398 nM.

`COc1cccc2c1c(NS(=O)(=O)c1ccc(Cl)s1)nn2Cc1cccc(CNC(=O)C(C)(C)N)c1` [Example 127, N^1-[(3-{[3-{[(5-Chloro-2-thienyl)sulfonyl]amino}-4-(methyloxy)-1H-indazol-1-yl]methyl}phenyl)methyl]-2-methylalaninamide] showed an IC50 of 3.98 to 15.8 nM.

`CC(=O)NCc1cccc(Cn2nc(NS(=O)(=O)c3ccc(Cl)s3)c3c(CO)cccc32)c1` [Example 148, N-[(3-{[3-{[(5-Chloro-2-thienyl)sulfonyl]amino}-4-(hydroxymethyl)-1H-indazol-1-yl]methyl}phenyl)methyl]acetamide] showed a half-maximal inhibitory concentration (IC50) of 3.98 to 15.8 nM.

`COc1cccc2c1c(NS(=O)(=O)c1ccc(Cl)s1)nn2Cc1cccc(CNC(=O)c2ccc(C(=O)O)cc2)c1` [Example 142, 4-({[(3-{[3-{[(5-Chloro-2-thienyl)sulfonyl]amino}-4-(methyloxy)-1H-indazol-1-yl]methyl}phenyl)methyl]amino}carbonyl)benzoic acid] showed a half-inhibitory concentration (IC50) of 3.98 to 15.8 nM.

In turn, `CC(O)c1cccc2c1c(NS(=O)(=O)c1ccc(Cl)s1)nn2Cc1cccc(CNC(=O)[C@@H]2COCCN2)c1` (stereo partly drawn) [Example 153, (3S)—N-[(3-{[3-{[(5-Chloro-2-thienyl)sulfonyl]amino}-4-(1-hydroxyethyl)-1H-indazol-1-yl]methyl}phenyl)methyl]-3-morpholinecarboxamide formate salt] showed a 50% inhibitory concentration (IC50) of 3.98 to 15.8 nM.

`COc1cccc2c1c(NS(=O)(=O)c1ccc(Cl)s1)nn2Cc1cccc(CNC(=O)CCC(=O)O)c1` [Example 138, 4-{[(3-{[3-{[(5-Chloro-2-thienyl)sulfonyl]amino}-4-(methyloxy)-1H-indazol-1-yl]methyl}phenyl)methyl]amino}-4-oxobutanoic acid] gave an IC50 of 3.98 to 15.8 nM.

`COc1cccc2c1c(NS(=O)(=O)c1ccc(Cl)s1)nn2Cc1cccc(CNC(=O)[C@H]2CC[C@H](C(=O)O)CC2)c1` [Example 143, trans-4-({[(3-{[3-{[(5-Chloro-2-thienyl)sulfonyl]amino}-4-(methyloxy)-1H-indazol-1-yl]methyl}phenyl)methyl]amino}carbonyl)cyclohexanecarboxylic acid] showed a concentration for half-maximal inhibition (IC50) of 3.98 to 15.8 nM.

The next test relates to CD4+ CCR4+ T cells. Nature of the test: Chemokine stimulated increases in cellular F-actin content. It is filed as cell-based. Particulars: Homo sapiens, T-cell, 0.5 h; PBMC from normal volunteers; antagonist 30 min at 37° C. before agonist for 15 sec; F-actin content by flow cytometry; read-out: pA2 (converted). The essentials: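 Human PBMC from citrated volunteer blood, stained for CD4 and CCR4, were pre-incubated with antagonist or vehicle (0.1% DMSO) for 30 min at 37 °C, then stimulated with agonist for 15 s and formaldehyde-fixed. F-actin was stained with phalloidin and read by flow cytometry as CD4+CCR4+ MFI relative to CD4+CCR4− cells.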
As to `COc1cccc2c1c(NS(=O)(=O)c1ccc(Cl)s1)nn2Cc1cccc(OCCN(C)C)c1` [Example 74, 5-Chloro-N-[1-[(3-{[2-(dimethylamino)ethyl]oxy}phenyl)methyl]-4-(methyloxy)-1H-indazol-3-yl]-2-thiophenesulfonamide], the Kb is at most 126 nM.

On to `COC[C@H](N)C(=O)NCc1cccc(Cn2nc(NS(=O)(=O)c3ccc(Cl)s3)c3c(OC)cccc32)c1` [Example 54, N^1-[(3-{[3-{[(5-Chloro-2-thienyl)sulfonyl]amino}-4-(methyloxy)-1H-indazol-1-yl]methyl}phenyl)methyl]-O-methylserinamide trifluoroacetate], for which the Kb was at most 126 nM.

On to `COc1cccc2c1c(NS(=O)(=O)c1ccc(Cl)s1)nn2Cc1cccc(CNC(=O)C2(C)CCCCN2)c1` (stereo not drawn) [Example 14, N-[(3-{[3-{[(5-chloro-2-thienyl)sulfonyl]amino}-4-(methyloxy)-1H-indazol-1-yl]methyl}phenyl)methyl]-2-methyl-2-piperidinecarboxamide], for which the Kb was at most 126 nM.

In the case of `COc1cccc2c1c(NS(=O)(=O)c1ccc(Cl)s1)nn2Cc1cccc(CNC(=O)[C@@H]2CCCN2C)c1` [Example 39, N-[(3-{[3-{[(5-Chloro-2-thienyl)sulfonyl]amino}-4-(methyloxy)-1H-indazol-1-yl]methyl}phenyl)methyl]-methyl-L-prolinamide trifluoroacetate], the Kb was at most 126 nM.

In general, IC50 refers to the concentration at which inhibition is half-maximal. The low end stands for greater potency in that assay, the high end for weaker potency in that assay.
